Results as given in ChEMBL document CHEMBL4257449, “New N-(2-phenyl-4-oxo-1,3-thiazolidin-3-yl)-1,2-benzothiazole-3-carboxamides and acetamides as antimicrobial agents” (2017).
Converted amounts (≈) assume the structure as drawn.

Legend:
Penicillium ochrochloron [1] = test: Fungicidal activity against Penicillium ochrochloron ATCC 9112 incubated for 72 hrs followed by serial sub-cultivation for 72 hrs and measured after 72 hrs by serial dilution method; type: functional
Listeria monocytogenes [2] = test: Bactericidal activity against Listeria monocytogenes NCTC 7973 incubated for 24 hrs followed by serial sub-cultivation and measured after 24 hrs by microdilution method; type: functional
Micrococcus flavus [3] = test: Bactericidal activity against Micrococcus flavus ATCC 10240 incubated for 24 hrs followed by serial sub-cultivation and measured after 24 hrs by microdilution method; type: functional
Aspergillus ochraceus [4] = test: Fungicidal activity against Aspergillus ochraceus ATCC 12066 incubated for 72 hrs followed by serial sub-cultivation for 72 hrs and measured after 72 hrs by serial dilution method; type: functional
Aspergillus ochraceus [5] = test: Antifungal activity against Aspergillus ochraceus ATCC 12066 after 72 hrs by serial dilution method; type: functional; conditions: ATCC 12066, 72 h
Escherichia coli [6] = test: Antibacterial activity against Escherichia coli ATCC 35210 after 24 hrs by microdilution method; type: functional; conditions: ATCC 35210, 24 h
Candida albicans [7] = test: Fungicidal activity against Candida albicans incubated for 72 hrs followed by serial sub-cultivation for 72 hrs and measured after 72 hrs by serial dilution method; type: functional
Aspergillus niger [8] = test: Fungicidal activity against Aspergillus niger ATCC 6275 incubated for 72 hrs followed by serial sub-cultivation for 72 hrs and measured after 72 hrs by serial dilution method; type: functional
Enterobacter cloacae [9] = test: Bactericidal activity against Enterobacter cloacae incubated for 24 hrs followed by serial sub-cultivation and measured after 24 hrs by microdilution method; type: functional
Trichoderma viride [10] = test: Antifungal activity against Trichoderma viride IAM 5061 after 72 hrs by serial dilution method; type: functional; conditions: IAM 5061, 72 h
Salmonella typhimurium [11] = test: Bactericidal activity against Salmonella typhimurium ATCC 13311 incubated for 24 hrs followed by serial sub-cultivation and measured after 24 hrs by microdilution method; type: functional, Salmonella enterica subsp. enterica serovar Typhimurium
Enterobacter cloacae [12] = test: Antibacterial activity against Enterobacter cloacae after 24 hrs by microdilution method; type: functional
Penicillium ochrochloron [13] = test: Antifungal activity against Penicillium ochrochloron ATCC 9112 after 72 hrs by serial dilution method; type: functional; conditions: ATCC 9112, 72 h
Pseudomonas aeruginosa [14] = test: Antibacterial activity against Pseudomonas aeruginosa ATCC 27853 after 24 hrs by microdilution method; type: functional; conditions: ATCC 27853, 24 h
Staphylococcus aureus [15] = test: Bactericidal activity against Staphylococcus aureus ATCC 6538 incubated for 24 hrs followed by serial sub-cultivation and measured after 24 hrs by microdilution method; type: functional
Talaromyces funiculosus [16] = test: Fungicidal activity against Penicillium funiculosum ATCC 36839 incubated for 72 hrs followed by serial sub-cultivation for 72 hrs and measured after 72 hrs by serial dilution method; type: functional
Aspergillus fumigatus [17] = test: Antifungal activity against Aspergillus fumigatus after 72 hrs by serial dilution method; type: functional
Talaromyces funiculosus [18] = test: Antifungal activity against Penicillium funiculosum ATCC 36839 after 72 hrs by serial dilution method; type: functional; conditions: ATCC 36839, 72 h
Trichoderma viride [19] = test: Fungicidal activity against Trichoderma viride IAM 5061 incubated for 72 hrs followed by serial sub-cultivation for 72 hrs and measured after 72 hrs by serial dilution method; type: functional
Escherichia coli [20] = test: Bactericidal activity against Escherichia coli ATCC 35210 incubated for 24 hrs followed by serial sub-cultivation and measured after 24 hrs by microdilution method; type: functional
Pseudomonas aeruginosa [21] = test: Bactericidal activity against Pseudomonas aeruginosa ATCC 27853 incubated for 24 hrs followed by serial sub-cultivation and measured after 24 hrs by microdilution method; type: functional
Bacillus cereus [22] = test: Bactericidal activity against Bacillus cereus incubated for 24 hrs followed by serial sub-cultivation and measured after 24 hrs by microdilution method; type: functional
Salmonella typhimurium [23] = test: Antibacterial activity against Salmonella typhimurium ATCC 13311 after 24 hrs by microdilution method; type: functional, Salmonella enterica subsp. enterica serovar Typhimurium; conditions: Salmonella enterica, ATCC 13311, 24 h
Staphylococcus aureus [24] = test: Antibacterial activity against Staphylococcus aureus ATCC 6538 after 24 hrs by microdilution method; type: functional; conditions: ATCC 6538, 24 h
Candida albicans [25] = test: Antifungal activity against Candida albicans after 72 hrs by serial dilution method; type: functional
Aspergillus niger [26] = test: Antifungal activity against Aspergillus niger ATCC 6275 after 72 hrs by serial dilution method; type: functional; conditions: ATCC 6275, 72 h
Bacillus cereus [27] = test: Antibacterial activity against Bacillus cereus after 24 hrs by microdilution method; type: functional
Aspergillus versicolor [28] = test: Antifungal activity against Aspergillus versicolor ATCC 11730 after 72 hrs by serial dilution method; type: functional; conditions: ATCC 11730, 72 h
Aspergillus versicolor [29] = test: Fungicidal activity against Aspergillus versicolor ATCC 11730 incubated for 72 hrs followed by serial sub-cultivation for 72 hrs and measured after 72 hrs by serial dilution method; type: functional
Micrococcus flavus [30] = test: Antibacterial activity against Micrococcus flavus ATCC 10240 after 24 hrs by microdilution method; type: functional; conditions: ATCC 10240, 24 h
Listeria monocytogenes [31] = test: Antibacterial activity against Listeria monocytogenes NCTC 7973 after 24 hrs by microdilution method; type: functional; conditions: NCTC 7973, 24 h
Aspergillus fumigatus [32] = test: Fungicidal activity against Aspergillus fumigatus incubated for 72 hrs followed by serial sub-cultivation for 72 hrs and measured after 72 hrs by serial dilution method; type: functional

Row | SMILES | MFC99.5 (Penicillium ochrochloron [1]) [×10⁻² umol/ml] | MBC99.5 (Listeria monocytogenes [2]) [×10⁻² umol/ml] | MBC99.5 (Micrococcus flavus [3]) [×10⁻² umol/ml] | MFC99.5 (Aspergillus ochraceus [4]) [×10⁻² umol/ml] | MIC (Aspergillus ochraceus [5]) [µM] | MIC (Escherichia coli [6]) [µM] | MFC99.5 (Candida albicans [7]) [×10⁻² umol/ml] | MFC99.5 (Aspergillus niger [8]) [×10⁻² umol/ml] | MBC99.5 (Enterobacter cloacae [9]) [×10⁻² umol/ml] | MIC (Trichoderma viride [10]) [µM] | MBC99.5 (Salmonella typhimurium [11]) [×10⁻² umol/ml] | MIC (Enterobacter cloacae [12]) [µM] | MIC (Penicillium ochrochloron [13]) [µM] | MIC (Pseudomonas aeruginosa [14]) [µM] | MBC99.5 (Staphylococcus aureus [15]) [×10⁻² umol/ml] | MFC99.5 (Talaromyces funiculosus [16]) [×10⁻² umol/ml] | MIC (Aspergillus fumigatus [17]) [µM] | MIC (Talaromyces funiculosus [18]) [µM] | MFC99.5 (Trichoderma viride [19]) [×10⁻² umol/ml] | MBC99.5 (Escherichia coli [20]) [×10⁻² umol/ml] | also measured
1 | O=C(Cc1nsc2ccccc12)NN1C(=O)CSC1c1ccccc1 (stereo not given) | 21.6 | 40.5 | 40.5 | 10.8 | 54 (≈ 20 µg/mL) | 216 (≈ 79.8 µg/mL) | 40.5 | 21.6 | 21.4 | 54 (≈ 20 µg/mL) | 40.5 | 108 (≈ 39.9 µg/mL) | 162 (≈ 59.9 µg/mL) | 216 (≈ 79.8 µg/mL) | 40.5 | 21.6 | 108 (≈ 39.9 µg/mL) | 216 (≈ 79.8 µg/mL) | 10.8 | 40.5 | MBC99.5 (Pseudomonas aeruginosa [21]): 40.5 ×10⁻² umol/ml; MBC99.5 (Bacillus cereus [22]): 40.5 ×10⁻² umol/ml; MIC (Salmonella typhimurium [23]): 216 µM (≈ 79.8 µg/mL); MIC (Staphylococcus aureus [24]): 216 µM (≈ 79.8 µg/mL); MIC (Candida albicans [25]): 216 µM (≈ 79.8 µg/mL); MIC (Aspergillus niger [26]): 162 µM (≈ 59.9 µg/mL); MIC (Bacillus cereus [27]): 216 µM (≈ 79.8 µg/mL); MIC (Aspergillus versicolor [28]): 216 µM (≈ 79.8 µg/mL); MFC99.5 (Aspergillus versicolor [29]): 40.5 ×10⁻² umol/ml; MIC (Micrococcus flavus [30]): 297 µM (≈ 110 µg/mL); MIC (Listeria monocytogenes [31]): 216 µM (≈ 79.8 µg/mL); MFC99.5 (Aspergillus fumigatus [32]): 40.5 ×10⁻² umol/ml
2 | O=C(NN1C(=O)CSC1c1c(F)cccc1F)c1nsc2ccccc12 (stereo not given) | 51 | 40.8 | 20.4 | 10.2 | 51 (≈ 20 µg/mL) | 102 (≈ 39.9 µg/mL) | 51 | 40.8 | 20.4 | 51 (≈ 20 µg/mL) | 40.8 | 102 (≈ 39.9 µg/mL) | 102 (≈ 39.9 µg/mL) | 204 (≈ 79.9 µg/mL) | 20.4 | 20.4 | 408 (≈ 160 µg/mL) | 102 (≈ 39.9 µg/mL) | 10.2 | 20.4 | MBC99.5 (Pseudomonas aeruginosa [21]): 40.8 ×10⁻² umol/ml; MBC99.5 (Bacillus cereus [22]): 20.4 ×10⁻² umol/ml; MIC (Salmonella typhimurium [23]): 204 µM (≈ 79.9 µg/mL); MIC (Staphylococcus aureus [24]): 102 µM (≈ 39.9 µg/mL); MIC (Candida albicans [25]): 408 µM (≈ 160 µg/mL); MIC (Aspergillus niger [26]): 204 µM (≈ 79.9 µg/mL); MIC (Bacillus cereus [27]): 102 µM (≈ 39.9 µg/mL); MIC (Aspergillus versicolor [28]): 204 µM (≈ 79.9 µg/mL); MFC99.5 (Aspergillus versicolor [29]): 40.8 ×10⁻² umol/ml; MIC (Micrococcus flavus [30]): 102 µM (≈ 39.9 µg/mL); MIC (Listeria monocytogenes [31]): 204 µM (≈ 79.9 µg/mL); MFC99.5 (Aspergillus fumigatus [32]): 51 ×10⁻² umol/ml
3 | O=C(NN1C(=O)CSC1c1ccc(Cl)cc1)c1nsc2ccccc12 (stereo not given) | 20.5 | 76.8 | 76.8 | 20.5 | 102 (≈ 39.8 µg/mL) | 589 (≈ 230 µg/mL) | 20.5 | 20.5 | 115.2 | 25.6 (≈ 9.98 µg/mL) | 115.2 | 789 (≈ 308 µg/mL) | 102 (≈ 39.8 µg/mL) | 205 (≈ 79.9 µg/mL) | 38.4 | 20.5 | 205 (≈ 79.9 µg/mL) | 102 (≈ 39.8 µg/mL) | 5.12 | 76.8 | MBC99.5 (Pseudomonas aeruginosa [21]): 76.8 ×10⁻² umol/ml; MBC99.5 (Bacillus cereus [22]): 38.4 ×10⁻² umol/ml; MIC (Salmonella typhimurium [23]): 768 µM (≈ 299 µg/mL); MIC (Staphylococcus aureus [24]): 205 µM (≈ 79.9 µg/mL); MIC (Candida albicans [25]): 102 µM (≈ 39.8 µg/mL); MIC (Aspergillus niger [26]): 102 µM (≈ 39.8 µg/mL); MIC (Bacillus cereus [27]): 205 µM (≈ 79.9 µg/mL); MIC (Aspergillus versicolor [28]): 102 µM (≈ 39.8 µg/mL); MFC99.5 (Aspergillus versicolor [29]): 20.5 ×10⁻² umol/ml; MIC (Micrococcus flavus [30]): 384 µM (≈ 150 µg/mL); MIC (Listeria monocytogenes [31]): 589 µM (≈ 230 µg/mL); MFC99.5 (Aspergillus fumigatus [32]): 38.4 ×10⁻² umol/ml
4 | O=C(NN1C(=O)CSC1c1c(F)cccc1Cl)c1nsc2ccccc12 (stereo not given) | 85.8 | 36.8 | 36.8 | 73.5 | 368 (≈ 150 µg/mL) | 270 (≈ 110 µg/mL) | 85.8 | 73.5 | 73.5 | 138 (≈ 56.3 µg/mL) | 36.8 | 368 (≈ 150 µg/mL) | 368 (≈ 150 µg/mL) | 196 (≈ 79.9 µg/mL) | 36.8 | 73.5 | 368 (≈ 150 µg/mL) | 368 (≈ 150 µg/mL) | 18.4 | 36.8 | MBC99.5 (Pseudomonas aeruginosa [21]): 36.8 ×10⁻² umol/ml; MBC99.5 (Bacillus cereus [22]): 36.8 ×10⁻² umol/ml; MIC (Salmonella typhimurium [23]): 196 µM (≈ 79.9 µg/mL); MIC (Staphylococcus aureus [24]): 196 µM (≈ 79.9 µg/mL); MIC (Candida albicans [25]): 735 µM (≈ 300 µg/mL); MIC (Aspergillus niger [26]): 368 µM (≈ 150 µg/mL); MIC (Bacillus cereus [27]): 196 µM (≈ 79.9 µg/mL); MIC (Aspergillus versicolor [28]): 184 µM (≈ 75 µg/mL); MFC99.5 (Aspergillus versicolor [29]): 73.5 ×10⁻² umol/ml; MIC (Micrococcus flavus [30]): 270 µM (≈ 110 µg/mL); MIC (Listeria monocytogenes [31]): 270 µM (≈ 110 µg/mL); MFC99.5 (Aspergillus fumigatus [32]): 73.5 ×10⁻² umol/ml
5 | O=C(NN1C(=O)CSC1c1c(Cl)cccc1Cl)c1nsc2ccccc12 (stereo not given) | 79 | 79 | 79 | 18.9 | 94.5 (≈ 40.1 µg/mL) | 543 (≈ 230 µg/mL) | 79 | 79 | 79 | 132 (≈ 56 µg/mL) | 79 | 543 (≈ 230 µg/mL) | 395 (≈ 168 µg/mL) | 189 (≈ 80.2 µg/mL) | 39.5 | 79 | 395 (≈ 168 µg/mL) | 395 (≈ 168 µg/mL) | 18.9 | 79 | MBC99.5 (Pseudomonas aeruginosa [21]): 39.5 ×10⁻² umol/ml; MBC99.5 (Bacillus cereus [22]): 79 ×10⁻² umol/ml; MIC (Salmonella typhimurium [23]): 395 µM (≈ 168 µg/mL); MIC (Staphylococcus aureus [24]): 189 µM (≈ 80.2 µg/mL); MIC (Candida albicans [25]): 395 µM (≈ 168 µg/mL); MIC (Aspergillus niger [26]): 395 µM (≈ 168 µg/mL); MIC (Bacillus cereus [27]): 395 µM (≈ 168 µg/mL); MIC (Aspergillus versicolor [28]): 189 µM (≈ 80.2 µg/mL); MFC99.5 (Aspergillus versicolor [29]): 70.8 ×10⁻² umol/ml; MIC (Micrococcus flavus [30]): 543 µM (≈ 230 µg/mL); MIC (Listeria monocytogenes [31]): 395 µM (≈ 168 µg/mL); MFC99.5 (Aspergillus fumigatus [32]): 79 ×10⁻² umol/ml
